Test results as given in ChEMBL document CHEMBL1201862, “PubChem BioAssay data set” (2004).
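Step 1: Grow cells in 96-well plates. Step 2: Expose to compound for 48 hours at 5 concentrations. Step 3: Interpolate endpoints linearly; if unreached, use highest concentration. GI50 marks 50% less growth.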 Activity calls are given as the source filed them. No stated cut-off is given here; in the data, active = GI50 up to about 1.1 µM and inactive = higher.

Key:
Experiment in all cases: DTP human tumour cell line panel, 48 h
[1] = test system: M14
[2] = test system: SK-MEL-2
[3] = test system: OVCAR-4
[4] = test system: UO-31
[5] = test system: SK-OV-3
[6] = test system: ACHN
[7] = test system: BT-549
[8] = test system: SF-539
[9] = test system: KM12
[10] = test system: UACC-257
[11] = test system: SK-MEL-28
[12] = test system: NCI/ADR-RES
[13] = test system: LOX IMVI
[14] = test system: 786-0
[15] = test system: SNB-75
[16] = test system: A498
[17] = test system: SN12C
[18] = test system: SW-620
[19] = test system: HL-60
[20] = test system: RPMI-8226
[21] = test system: SF-268
[22] = test system: CAKI-1
[23] = test system: SR
[24] = test system: T47D
[25] = test system: MDA-MB-231
[26] = test system: NCI-H522
[27] = test system: HCT-15
[28] = test system: HCT-116
[29] = test system: MDA-N
[30] = test system: NCI-H460
[31] = test system: HT-29
[32] = test system: OVCAR-8
[33] = test system: SF-295
[34] = test system: EKVX
[35] = test system: NCI-H226
[36] = test system: OVCAR-3
[37] = test system: TK-10
[38] = test system: CCRF-CEM
[39] = test system: UACC-62
[40] = test system: U-251
[41] = test system: MOLT-4
[42] = test system: Hs-578T
[43] = test system: DU-145
[44] = test system: A549
[45] = test system: SNB-19
[46] = test system: K562
[47] = test system: IGROV-1
[48] = test system: NCI-H23
[49] = test system: HOP-62
[50] = test system: PC-3
[51] = test system: OVCAR-5
[52] = test system: Malme-3M
[53] = test system: HCC 2998
[54] = test system: COLO 205
[55] = test system: MCF7
[56] = test system: MDA-MB-435

Question: Which results are given for CCOC(=O)C1(Cc2ccc3c(c2)CCC3)Cc2cc3c(cc2C1)CCC3?
Answer: GI50 [1]: 21.5 µM (inactive); GI50 [2]: 32.6 µM (inactive); GI50 [3]: 28 µM (inactive); GI50 [4]: 49 µM (inactive); GI50 [5]: 24.7 µM (inactive); GI50 [6]: 33.7 µM (inactive); GI50 [7]: 90.4 µM (inactive); GI50 [8]: 29.7 µM (inactive); GI50 [9]: 40.7 µM (inactive); GI50 [10]: 23.7 µM (inactive); GI50 [11]: 39.4 µM (inactive); GI50 [12]: 78.5 µM (inactive); GI50 [13]: 15.4 µM (inactive); GI50 [14]: 29.6 µM (inactive); GI50 [15]: 75.5 µM (inactive); GI50 [16]: 37.5 µM (inactive); GI50 [17]: 27.8 µM (inactive); GI50 [18]: 23.9 µM (inactive); GI50 [19]: > 100 µM (inactive); GI50 [20]: 14.6 µM (inactive); GI50 [21]: 53.2 µM (inactive); GI50 [22]: 45.7 µM (inactive); GI50 [23]: 23.9 µM (inactive); GI50 [24]: 17.7 µM (inactive); GI50 [25]: 28.1 µM (inactive); GI50 [26]: 25.1 µM (inactive); GI50 [27]: 32 µM; GI50 [28]: 25.5 µM (inactive); GI50 [29]: 37 µM (inactive); GI50 [30]: 27.5 µM (inactive); GI50 [31]: 6.46 µM (inactive); GI50 [32]: 42.5 µM (inactive); GI50 [33]: 25.1 µM (inactive); GI50 [34]: 47.6 µM (inactive); GI50 [35]: 31.6 µM (inactive); GI50 [36]: 32.4 µM (inactive); GI50 [37]: > 100 µM (inactive); GI50 [38]: 13.9 µM (inactive); GI50 [39]: 30.6 µM (inactive); GI50 [40]: 32.3 µM (inactive); GI50 [41]: 11.5 µM (inactive); GI50 [42]: 34.8 µM (inactive); GI50 [43]: 53 µM (inactive); GI50 [44]: 35.9 µM (inactive); GI50 [45]: 36.7 µM (inactive); GI50 [46]: 15.2 µM (inactive); GI50 [47]: 46.8 µM (inactive); GI50 [48]: 35.7 µM (inactive); GI50 [49]: 32.9 µM (inactive); GI50 [50]: 21.9 µM (inactive); GI50 [51]: 45.6 µM (inactive); GI50 [52]: 27.2 µM (inactive); GI50 [53]: 22.6 µM (inactive); GI50 [54]: 33.9 µM (inactive); GI50 [55]: 16.4 µM (inactive); GI50 [56]: 35.7 µM (inactive)
